Reference: US20050244335A1, “Methods and compositions related to increasing antitumor activity of chemotherapeutic agents” (priority 2004, published 2005)

Tests used:
[1] = Pharmacokinetics and tissue distribution of carboplatin in CD-1 mice; type: in vivo; details: carboplatin 60 mg/kg iv
Method: Pharmacokinetic studies were carried out using a protocol similar to that previously described (Wang, 1999) using metabolism cages. Male CD-1 mice were pre-treated with DEX (s.c., 0.1 mg/day/mouse for 5 days) or saline (as controls), and, at 1 hr after the fifth dose of DEX, were given a single intravenously (i.v.) bolus administration of carboplatin (60 mg/kg) via a tail vein. At various times (5, 15, and 30 min, 1, 2, 4, 8, and 24 hr after drug dosing; 3 animals for each time point)), blood samples were collected in heparinized tubes and tissue samples removed. Plasma was separated by centrifugation at 20,000 g for 5 min. Tissues including liver, kidneys and spleen were immediately blotted on Whatman No. 1 filter paper, trimmed of extraneous fat or connective tissue, weighed, and homogenized in 0.9% NaCl physiological saline (5 mL per g of wet tissue weight). The resultant homogenates were stored at −70° C. until further analysis. Bone marrow cells were harvested by flushing the femurs with sterile physiological saline as reported previously (Zhang, 1993). The resultant bone marrow cell suspension was weighed and lysed by sonicating 5 times for periods of 10 sec. Following centrifugation at 20,000 g for 30 min, the supernatant was removed and stored at −70° C. until further analysis.
[…] in biological samples was analyzed by an analytical procedure involving micro-filtration and reversed-phase HPLC (Bullen, 1992). 200 μL of plasma or tissue homogenates or bone marrow suspension was added to the reservoir of a Centrifree™ micropartition system. The latter was capped and centrifuged at 2,000 g for 5 min. All filtrates were transferred into a new micro centrifuge tube and 6 μL of the filtrates was injected onto the HPLC column. The HPLC system consisted of a Hewlett Packard 1050 ChemStation with a UV detector (Agilent 1050 series). Determination of Carboplatin was achieved using a LiChrosorb™ diol (10 μm, 250×4.6 mm) analytical column with a LiChroCART 100 RP-18 guard column. The mobile phase for plasma was composed of 98:2 acetonitrile: H2O (vol/vol) and 89:11 acetonitrile: 0.015% H3PO4 (vol/vol) for urine and tissue samples. The flow rates were 2 mL/min (for plasma) and 1.1 mL/min (for urine and tissue samples). The column elute was monitored by UV at 229 nm. Quantitation of plasma or tissue carboplatin was carried out by using an external standard curve (0-4,000.0 μg/mL) that was freshly prepared daily. Linear regression and correlation analysis were carried out to establish the standard peak-area/concentration curves for carboplatin.
(§1) The significance of the differences among treated groups and controls were analyzed by ANOVA.

[2] = test system: human breast cancer MDA-MB-468 xenografts; assay: In vivo chemotherapy, breast cancer MDA-MB-468 xenograft model in nude mice; details: MDA-MB-468 model; agent alone
Text: Cell Culture. […] All media contained 1% penicillin-streptomycin.
Data and Statistical Analysis.

CD-1 mice = type: in vivo; details: CD-1 mice
Method: Male CD-1 mice, randomly divided into multiple treatment and control groups (10 mice/group), were given DEX by subcutaneous (s.c.) injection at doses of 0.01, 0.05, 0.1, 0.3 mg/mouse/day or saline (as controls) for 5 days prior to (day −4 to 0) or after (day 0 to 4) a single intraperitoneal (i.p.) injection of carboplatin (600 mg/m^2 or 200 mg/kg) on day 0. Animals were monitored daily for activity, physical condition, body weight and 14-day survival rates.
as §1

SMILES: N.N.O=C([O-])C1(C(=O)[O-])CCC1.[Pt+2] [carboplatin]
- AUC of carboplatin in spleen, DEX pretreated relative to control mice [1]: approximately 16.5%
- carboplatin AUC decrease in bone marrow, DEX pretreated vs control mice [1]: 57.4%
- decrease of carboplatin uptake in liver by DEX pretreatment [1]: 40%
- AUC ([1]; bone marrow, DEX (+)): 517160 ng·h/mL
- CL ([1]; bone marrow, DEX (+)): 0.12 mL/g/h
- Cmax ([1]; bone marrow, DEX (+)): 20610 ng/mL
- T1/2 ([1]; bone marrow, DEX (+)): 922.8 min
- Vss ([1]; bone marrow, DEX (+)): 2.57 mL/g
- AUC ([1]; bone marrow, DEX (−)): 901600 ng·h/mL
- CL ([1]; bone marrow, DEX (−)): 0.07 mL/g/h
- Cmax ([1]; bone marrow, DEX (−)): 20140 ng/mL
- T1/2 ([1]; bone marrow, DEX (−)): 1708 min
- Vss ([1]; bone marrow, DEX (−)): 2.75 mL/g
- AUC ([1]; liver, DEX (+)): 25020 ng·h/mL
- CL ([1]; liver, DEX (+)): 2.40 mL/g/h
- Cmax ([1]; liver, DEX (+)): 16550 ng/mL
- T1/2 ([1]; liver, DEX (+)): 23.4 min
- Vss ([1]; liver, DEX (+)): 1.35 mL/g
- AUC ([1]; liver, DEX (−)): 38710 ng·h/mL
- CL ([1]; liver, DEX (−)): 1.55 mL/g/h
- Cmax ([1]; liver, DEX (−)): 25440 ng/mL
- T1/2 ([1]; liver, DEX (−)): 23.4 min
- Vss ([1]; liver, DEX (−)): 0.87 mL/g
- AUC ([1]; plasma, DEX (+)): 42690 ng·h/mL
- CL ([1]; plasma, DEX (+)): 1.41 mL/g/h
- Cmax ([1]; plasma, DEX (+)): 227580 ng/mL
- T1/2 ([1]; plasma, DEX (+)): 7.8 min
- Vss ([1]; plasma, DEX (+)): 0.26 mL/g
- AUC ([1]; plasma, DEX (−)): 44180 ng·h/mL
- CL ([1]; plasma, DEX (−)): 1.36 mL/g/h
- Cmax ([1]; plasma, DEX (−)): 352620 ng/mL
- T1/2 ([1]; plasma, DEX (−)): 5.4 min
- Vss ([1]; plasma, DEX (−)): 0.17 mL/g
- AUC ([1]; spleen, DEX (+)): 56720 ng·h/mL
- CL ([1]; spleen, DEX (+)): 1.06 mL/g/h
- Cmax ([1]; spleen, DEX (+)): 17790 ng/mL
- T1/2 ([1]; spleen, DEX (+)): 49.2 min
- Vss ([1]; spleen, DEX (+)): 1.25 mL/g
- AUC ([1]; spleen, DEX (−)): 344110 ng·h/mL
- CL ([1]; spleen, DEX (−)): 0.17 mL/g/h
- Cmax ([1]; spleen, DEX (−)): 118730 ng/mL
- T1/2 ([1]; spleen, DEX (−)): 45 min
- Vss ([1]; spleen, DEX (−)): 0.19 mL/g
- effect on tumor growth [2]: no effects on tumor growth
- survival rate (CD-1 mice; carboplatin 600 mg/m^2 (200 mg/kg) i.p. alone (carboplatin controls), 14-day): 10%
- mortality rate (CD-1 mice; single i.p. dose of carboplatin alone 600 mg/m^2 (200 mg/kg)): 90%
